Laboratory results: ChEMBL document CHEMBL5614427, “Discovery and Optimization of N-Heteroaryl Indazole LRRK2 Inhibitors” (J Med Chem, 2024)

Columns and labels:
[1] = Mean residence time in Wistar Han rat at 0.1 mg/kg, iv administered as cassette dosing measured upto 24 hrs by LC-MS/MS analysis; type: ADME, organism-based; conditions: in vivo
[2] = Mean residence time in Beagle dog at 0.25 mg/kg, iv measured upto 24 hrs by LC-MS/MS analysis; type: ADME, organism-based, Canis lupus familiaris; conditions: in vivo
[3] = Oral bioavailability in Wistar Han rat at 1 mg/kg measured upto 24 hrs by LC-MS/MS analysis; type: ADME, organism-based; conditions: in vivo
[4] = Oral bioavailability in Beagle dog at 0.5 mg/kg measured upto 24 hrs by LC-MS/MS analysis; type: ADME, organism-based, Canis lupus familiaris; conditions: in vivo
[5] = Ratio of unbound CSF to plasma drug concentration in rhesus monkey; type: ADME, Macaca mulatta
[6] = Ratio of unbound brain to plasma drug concentration in Wistar Han rat; type: ADME, cell-free; conditions: read-out: K(p,uu,brain)
[7] = Ratio of unbound brain to plasma drug concentration in rhesus monkey; type: ADME, cell-free, Macaca mulatta; conditions: read-out: K(p,uu,brain)
[8] = Lipophilicity, logD of compound at pH 7 by shake flask based HPLC method; type: physicochemical; conditions: buffer
[9] = Oral bioavailability in Wistar Han rat at 10 mg/kg measured upto 24 hrs by LC-MS/MS analysis; type: ADME, organism-based; conditions: in vivo
[10] = AUC in rat at 100 mg/kg, po BID; type: ADME, organism-based; conditions: in vivo
[11] = Mean residence time in Wistar Han rat at 2 mg/kg, iv measured upto 24 hrs by LC-MS/MS analysis; type: ADME, organism-based; conditions: in vivo

Compound	MRT [1] [h]	logD [8]	other results
Cn1cc(-n2ncc3cc(Cl)c(C4CCN(C5COC5)CC4)cc32)cn1	2.1	–	MRT [2]: 2.1 h; bioavailability [3]: 77%; bioavailability [4]: 59%; Kp uu [5]: 1; Kp uu [6]: 0.4; Kp uu [7]: 0.9
CC1(N2CCN(c3cc4c(cnn4-c4cnn(C5CC5)c4)cc3Cl)CC2)COC1	2.8	–	–
CC1(N2CCN(c3cc4c(cnn4-c4cnn(C5CC5)c4)cc3Cl)CC2)CCOC1 (stereo not given)	3.2	–	–
CCn1cc(-n2ncc3cc(Cl)c(C4CCN(C5(C)COC5)CC4)cc32)cn1	4	3.2	–
CO[C@H]1C[C@H](n2cc(-n3ncc4cc(Cl)c(C5CCN(C6(C)COC6)CC5)cc43)cn2)C1	4.1	3.5	–
CC1(N2CCN(c3cc4c(cnn4-c4cnn(C56CC(C5)C6)c4)cc3Cl)CC2)COC1	3.4	–	–
C[C@@]1(N2CCN(c3cc4c(cnn4-c4cnn(C56CC(C5)C6)c4)cc3Cl)CC2)COC[C@@H]1O	–	–	MRT [2]: 12 h; bioavailability [9]: 48%; AUC [10]: 101 µM·h; MRT [11]: 5.8 h; Kp uu [6]: 0.4
CC1(N2CCC(c3cc4c(cnn4-c4cnn(-c5ncc(F)cn5)c4)cc3Cl)CC2)COC1	3.3	3.3	–
CC1(N2CCN(c3cc4c(cnn4-c4cnn(-c5ncc(F)cn5)c4)cc3Cl)CC2)COC1	4.5	2.8	MRT [2]: 17 h; bioavailability [3]: 88%; bioavailability [4]: 47%
CC1(N2CCN(c3cc4c(cnn4-c4cnn(C56CC(C(F)F)(C5)C6)c4)cc3Cl)CC2)COC1	2.7	–	–
CC1(N2CCC(c3cc4c(cnn4-c4cnn(C(F)F)c4)cc3Cl)CC2)COC1	3.5	3.7	–
C[C@@]1(N2CCN(c3cc4c(cnn4-c4cnn(C5CC5)c4)cc3Cl)CC2)COC[C@@H]1O	2.5	–	–
Cn1cc(-n2ncc3cc(Cl)c(C4CCN(C5(C)COC5)CC4)cc32)cn1	3.4	2.8	–
CC1(N2CCC(c3cc4c(cnn4-c4cnn(C5CC5)c4)cc3Cl)CC2)COC1	3.6	3.4	–

The next lines start with results.

MRT [1] [h]	logD [8]	Compound	other results
1	–	CO[C@@H]1CCN(c2cc(-n3ncc4ccc([C@]5(C)CC56CC6)cc43)ncn2)C1	–
2.2	–	COCC12CC(n3cc(-n4ncc5cc(Cl)c(N6CCN(C7(C)COC7)CC6)cc54)cn3)(C1)C2	–
1	–	Cc1cc(-n2ncc3ccc([C@]4(C#N)CC45CC5)cc32)nc(C)n1	Kp uu [6]: 0.19
1.5	–	Cn1ccc(-n2ncc3cc(Cl)c(C4CCN(C5COC5)CC4)cc32)n1	–
2.9	–	CC1(N2CCN(c3cc4c(cnn4-c4cnn(C56CC(C#N)(C5)C6)c4)cc3Cl)CC2)COC1	–
3.2	–	COC12CC(n3cc(-n4ncc5cc(Cl)c(N6CCN(C7(C)COC7)CC6)cc54)cn3)(C1)C2	–
0.8	–	Cn1ccc(-n2ncc3ccc([C@]4(C#N)CC45CC5)cc32)n1	Kp uu [6]: 1
0.8	–	Cc1nc(-n2ncc3ccc([C@]4(C#N)CC45CC5)cc32)cs1	Kp uu [6]: 0.5
